Patent US8741897B2, “Glucocorticoid mimetics, methods of making them, pharmaceutical compositions and uses thereof” (Boehringer Ingelheim Pharmaceuticals Inc., priority 2003, dated 2014)

What was measured:
[1] = molecular target: T1, human glucocorticoid receptor (GR) complex (Homo sapiens, UniProt P04150); assay: Glucocorticoid receptor competitive binding assay (fluorescence polarization, TAMRA-labeled dexamethasone probe); conditions: compounds of Formula (IA)
T1 construct: made in house; host or cells: insect expression system (baculovirus lysate)
T1 sequence (P04150 1-777): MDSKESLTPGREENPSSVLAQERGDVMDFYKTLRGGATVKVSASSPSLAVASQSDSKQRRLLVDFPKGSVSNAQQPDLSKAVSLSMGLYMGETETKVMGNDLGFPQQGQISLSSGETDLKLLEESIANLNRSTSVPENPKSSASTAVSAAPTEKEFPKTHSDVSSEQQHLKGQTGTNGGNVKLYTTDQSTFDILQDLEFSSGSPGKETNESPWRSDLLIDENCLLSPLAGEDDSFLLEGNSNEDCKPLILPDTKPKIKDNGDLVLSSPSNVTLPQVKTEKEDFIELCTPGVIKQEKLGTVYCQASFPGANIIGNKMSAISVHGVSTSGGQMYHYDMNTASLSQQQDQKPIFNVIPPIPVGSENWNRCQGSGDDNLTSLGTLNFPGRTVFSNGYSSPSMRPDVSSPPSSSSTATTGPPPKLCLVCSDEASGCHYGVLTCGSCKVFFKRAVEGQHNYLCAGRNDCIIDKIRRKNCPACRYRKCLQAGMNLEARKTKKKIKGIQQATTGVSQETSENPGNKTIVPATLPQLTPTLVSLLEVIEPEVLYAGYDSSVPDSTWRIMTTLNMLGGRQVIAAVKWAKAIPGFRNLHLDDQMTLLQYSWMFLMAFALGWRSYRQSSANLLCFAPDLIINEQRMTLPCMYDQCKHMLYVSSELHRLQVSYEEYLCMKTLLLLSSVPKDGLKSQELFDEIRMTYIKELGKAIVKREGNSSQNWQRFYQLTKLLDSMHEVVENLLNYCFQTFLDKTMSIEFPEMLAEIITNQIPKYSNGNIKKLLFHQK
Method in brief: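 Fluorescence-polarization competition against 15 nM TAMRA-dexamethasone (stock added to the mix) for human GR complex from baculovirus lysate diluted 1:170. Buffer: 10 mM TES, 50 mM KCl, 20 mM Na2MoO4, 1.5 mM EDTA, 0.04% CHAPS, 10% glycerol, 1 mM DTT, pH 7.4. IC50 from 4-parameter logistic fit.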

[2] = system: glucocorticoid receptor function; assay: one or more of the above assays (GR binding and glucocorticoid receptor cell assays: aromatase, IL-6, TAT, MMTV-Luc, IL-8, ICAM-Luc); type: cell-based; conditions: assay not specified per compound
[3] = system: Human osteosarcoma MG-63 cells; assay: Inhibition of osteocalcin production from osteoblast cell line MG-63; type: cell-based; conditions: Vitamin D 10 nM, 48 hours
Protocol: 7. Inhibition of Osteocalcin Production from Osteoblast Cell Line MG-63
The next day, wells are replaced with fresh media. Cells are treated with Vitamin D (Sigma, Cat. No. D1530) to a final concentration of 10 nM, and with the test compounds in concentrations of 10^−6 M to 10^−9 M, in a total volume of 200 μL per well. Samples are done in duplicates. […] Positive control wells receive Vitamin D only, without compounds, and represent maximum (100%) amount of osteocalcin production. Plates are incubated at 37° C. incubator for 48 hours and supernatants are harvested at the end of incubation. Amounts of osteocalcin in the supernatants are determined by the Glype osteocalcin ELISA kit (Zymed, Cat. No. 99-0054) according to manufacture's protocol. Inhibition of osteocalcin by test compounds is expressed in percentage relative to positive controls. IC50 values of the test compounds are derived by non-lineal curve fitting.

Row | SMILES | activity in the GR binding assay [1] | activity as agonists of the glucocorticoid receptor function in one or more of the above assays [2] | inhibit the vitamin D stimulated production of osteocalcin [3]
1 | CC(C)(CC(O)(Cc1cc2cc(C(=O)NCC#N)ccc2[nH]1)C(F)(F)F)c1cc(Br)cc2c1OCC2 (stereo not drawn) [2-[4-(5-Bromo-2,3-dihydrobenzofuran-7-yl)-2-hydroxy-4-methyl-2-trifluoromethylpentyl]-1H-indole-5-carboxylic acid cyanomethylamide] | potent activity | potent agonists | inhibit
2 | COc1cc2cc(CC(O)(CC(C)(C)c3cc(Cl)cc4c3OCC4)C(F)(F)F)[nH]c2cn1 (stereo not drawn) [4-(5-Chloro-2,3-dihydrobenzofuran-7-yl)-1,1,1-trifluoro-2-(5-methoxy-1H-pyrrolo[2,3-c]pyridin-2-ylmethyl)-4-methylpentan-2-ol] | potent activity | potent agonists | inhibit
3 | Cc1cc2[nH]c(CC(O)(CC(C)(C)c3cc(Cl)cc4c3OCC4)C(F)(F)F)cc2c(C)n1 (stereo not drawn) [4-(5-Chloro-2,3-dihydrobenzofuran-7-yl)-2-(4,6-dimethyl-1H-pyrrolo[3,2-c]pyridin-2-ylmethyl)-1,1,1-trifluoro-4-methylpentan-2-ol] | potent activity | potent agonists | inhibit
4 | COc1ccc(F)cc1C(C)(C)CC(O)(Cc1cc2c(C)nc(C#N)cc2[nH]1)C(F)(F)F (stereo not drawn) [2-[4-(5-Fluoro-2-methoxyphenyl)-2-hydroxy-4-methyl-2-trifluoromethylpentyl]-4-methyl-1H-pyrrolo[3,2-c]pyridine-6-carbonitrile] | potent activity | potent agonists | inhibit
